Data from the NIST ThermoML archive (doi:10.1021/je400056z).

Experiment: xn = mol fraction of the nth substance listed
Conditions: Liquid, Vibrating tube method

CCCCCCC [heptane] + O=C=O
Conditions	mass density [kg/m3]
322.91 K, 22022 kPa, x2 = 0.7514	759.49
322.91 K, 23010 kPa, x2 = 0.7514	762.14
322.91 K, 23983 kPa, x2 = 0.7514	764.78
322.91 K, 24907 kPa, x2 = 0.7514	767.21
322.94 K, 3016 kPa, x2 = 0.0218	663.11
322.94 K, 4008 kPa, x2 = 0.0218	664.28
322.94 K, 5006 kPa, x2 = 0.0218	665.41
322.94 K, 5006 kPa, x2 = 0.5085	691.2
322.94 K, 6002 kPa, x2 = 0.0218	666.44
322.94 K, 6004 kPa, x2 = 0.5085	693.82
322.94 K, 7003 kPa, x2 = 0.0218	667.61
322.94 K, 7005 kPa, x2 = 0.5085	696.6
322.94 K, 8006 kPa, x2 = 0.0218	668.67
322.94 K, 8009 kPa, x2 = 0.5085	698.81
322.94 K, 8995 kPa, x2 = 0.0218	669.76
322.94 K, 9010 kPa, x2 = 0.5085	701.04
322.94 K, 10002 kPa, x2 = 0.0218	670.79
322.94 K, 10006 kPa, x2 = 0.5085	703.24
322.94 K, 10997 kPa, x2 = 0.5085	705.29
322.94 K, 11002 kPa, x2 = 0.0218	671.78
322.94 K, 11999 kPa, x2 = 0.0218	672.82
322.94 K, 12001 kPa, x2 = 0.5085	707.34
322.94 K, 12998 kPa, x2 = 0.5085	709.37
322.94 K, 13000 kPa, x2 = 0.0218	673.79
322.94 K, 14001 kPa, x2 = 0.0218	674.79
322.94 K, 14004 kPa, x2 = 0.5085	711.26
322.94 K, 15002 kPa, x2 = 0.0218	675.77
322.94 K, 15009 kPa, x2 = 0.5085	713.17
322.94 K, 15998 kPa, x2 = 0.0218	676.69
322.94 K, 16004 kPa, x2 = 0.5085	715.02
322.94 K, 17002 kPa, x2 = 0.0218	677.65
322.94 K, 17009 kPa, x2 = 0.5085	716.84
322.94 K, 18003 kPa, x2 = 0.0218	678.53
322.94 K, 18003 kPa, x2 = 0.5085	718.61
322.94 K, 18995 kPa, x2 = 0.0218	679.45
322.94 K, 19009 kPa, x2 = 0.5085	720.34
322.94 K, 20004 kPa, x2 = 0.5085	722.03
322.94 K, 20009 kPa, x2 = 0.0218	680.41
322.94 K, 20999 kPa, x2 = 0.0218	681.28
322.94 K, 21007 kPa, x2 = 0.5085	723.66
322.94 K, 21995 kPa, x2 = 0.5085	725.31
322.94 K, 22005 kPa, x2 = 0.0218	682.14
322.94 K, 23002 kPa, x2 = 0.5085	726.96
322.94 K, 23011 kPa, x2 = 0.0218	683.03
322.94 K, 24002 kPa, x2 = 0.5085	728.57
322.94 K, 24009 kPa, x2 = 0.0218	683.94
322.94 K, 24961 kPa, x2 = 0.0218	684.87
322.94 K, 25011 kPa, x2 = 0.5085	730.19
322.96 K, 12028 kPa, x2 = 0.9496	666.43
322.96 K, 13010 kPa, x2 = 0.9496	691.64
322.96 K, 13994 kPa, x2 = 0.9496	711.79
322.96 K, 14997 kPa, x2 = 0.9496	728.42
322.96 K, 16006 kPa, x2 = 0.9496	742.98
322.96 K, 17008 kPa, x2 = 0.9496	755.69
322.96 K, 17999 kPa, x2 = 0.9496	766.84
322.96 K, 19001 kPa, x2 = 0.9496	777.08
322.96 K, 20001 kPa, x2 = 0.9496	786.26
322.96 K, 20994 kPa, x2 = 0.9496	794.84
322.96 K, 21997 kPa, x2 = 0.9496	802.85
322.96 K, 23019 kPa, x2 = 0.9496	810.46
322.96 K, 23997 kPa, x2 = 0.9496	817.33
322.96 K, 24395 kPa, x2 = 0.9496	820.02
332.7 K, 12055 kPa, x2 = 0.9496	554.72
332.7 K, 13001 kPa, x2 = 0.9496	599.39
332.7 K, 14003 kPa, x2 = 0.9496	633.33
332.7 K, 14995 kPa, x2 = 0.9496	659.11
332.7 K, 16003 kPa, x2 = 0.9496	680.52
332.7 K, 16980 kPa, x2 = 0.9496	697.86
332.7 K, 18002 kPa, x2 = 0.9496	713.39
332.7 K, 19004 kPa, x2 = 0.9496	727.03
332.7 K, 19979 kPa, x2 = 0.9496	738.9
332.7 K, 20995 kPa, x2 = 0.9496	749.98
332.7 K, 22006 kPa, x2 = 0.9496	760
332.7 K, 23011 kPa, x2 = 0.9496	769.32
332.7 K, 24046 kPa, x2 = 0.9496	778.17
332.7 K, 24505 kPa, x2 = 0.9496	781.98
332.72 K, 5013 kPa, x2 = 0.3148	672.27
332.72 K, 6004 kPa, x2 = 0.3148	673.82
332.72 K, 7000 kPa, x2 = 0.3148	675.27
332.72 K, 8008 kPa, x2 = 0.3148	676.79
332.72 K, 9003 kPa, x2 = 0.3148	678.48
332.72 K, 10007 kPa, x2 = 0.3148	680.17
332.72 K, 11008 kPa, x2 = 0.3148	681.84
332.72 K, 11995 kPa, x2 = 0.3148	683.4
332.72 K, 12994 kPa, x2 = 0.3148	684.97
332.72 K, 14002 kPa, x2 = 0.3148	686.5
332.72 K, 15009 kPa, x2 = 0.3148	688.01
332.72 K, 16005 kPa, x2 = 0.3148	689.47
332.72 K, 16994 kPa, x2 = 0.3148	690.88
332.72 K, 17996 kPa, x2 = 0.3148	692.28
332.72 K, 19002 kPa, x2 = 0.3148	693.66
332.72 K, 20001 kPa, x2 = 0.3148	695.02
332.72 K, 21004 kPa, x2 = 0.3148	696.34
332.72 K, 22014 kPa, x2 = 0.3148	697.64
332.72 K, 22998 kPa, x2 = 0.3148	698.95
332.72 K, 24000 kPa, x2 = 0.3148	700.22
332.72 K, 25010 kPa, x2 = 0.3148	701.53
332.73 K, 9976 kPa, x2 = 0.7514	687.42
332.73 K, 11027 kPa, x2 = 0.7514	694.77
332.73 K, 12005 kPa, x2 = 0.7514	701.07
332.73 K, 13004 kPa, x2 = 0.7514	706.72
332.73 K, 14002 kPa, x2 = 0.7514	712.07
332.73 K, 15007 kPa, x2 = 0.7514	716.96
332.73 K, 16008 kPa, x2 = 0.7514	721.73
332.73 K, 17006 kPa, x2 = 0.7514	726.16
332.73 K, 17992 kPa, x2 = 0.7514	730.25
332.73 K, 19005 kPa, x2 = 0.7514	734.18
332.73 K, 19992 kPa, x2 = 0.7514	737.97
332.73 K, 21048 kPa, x2 = 0.7514	741.67
332.73 K, 21991 kPa, x2 = 0.7514	745.02
332.73 K, 22997 kPa, x2 = 0.7514	748.43
332.73 K, 23997 kPa, x2 = 0.7514	751.86
332.73 K, 24860 kPa, x2 = 0.7514	754.69
332.8 K, 3011 kPa, x2 = 0.0218	654.41
332.8 K, 4004 kPa, x2 = 0.0218	655.67
332.8 K, 5003 kPa, x2 = 0.0218	656.85
332.8 K, 6000 kPa, x2 = 0.0218	658.03
332.8 K, 7004 kPa, x2 = 0.0218	659.2
332.8 K, 8007 kPa, x2 = 0.0218	660.37
332.8 K, 9001 kPa, x2 = 0.0218	661.51
332.8 K, 10004 kPa, x2 = 0.0218	662.62
332.8 K, 10998 kPa, x2 = 0.0218	663.71
332.8 K, 12002 kPa, x2 = 0.0218	664.82
332.8 K, 12996 kPa, x2 = 0.0218	665.83
332.8 K, 13999 kPa, x2 = 0.0218	666.94
332.8 K, 15004 kPa, x2 = 0.0218	667.94
332.8 K, 16005 kPa, x2 = 0.0218	668.95
332.8 K, 16998 kPa, x2 = 0.0218	669.95
332.8 K, 18005 kPa, x2 = 0.0218	670.91
332.8 K, 19003 kPa, x2 = 0.0218	671.91
332.8 K, 20002 kPa, x2 = 0.0218	672.83
332.8 K, 21008 kPa, x2 = 0.0218	673.8
332.8 K, 21997 kPa, x2 = 0.0218	674.76
332.8 K, 22998 kPa, x2 = 0.0218	675.69
332.8 K, 24009 kPa, x2 = 0.0218	676.63
